{"source": "patent US10238688B2", "about": "“Combination therapies for bladder cancer” (GENEDIA BIOTECH CO. LTD., priority 2015, dated 2019)", "key": {"Notch pathway": {"tested_on": "Notch pathway", "assay": "Cignal Finder dual-luciferase pathway reporter, Notch;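 on digitalized pathway activity, Notch: code −1 means repressed below 0.5-fold of 5637 cells or no-drug control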", "assay_type": "cell-based, human", "parameters": "key to Relative activity, Notch reporter: firefly/renilla ratio, background (negative control) subtracted", "conditions": "for Relative activity, Notch reporter: luc/Renluc relative to negative control reporter, single drug at 4 folds vs EH/Ci/Mi combination", "protocol": "(§1) The pathway analysis was performed with Qiagen's Cignal Finder Pathway Reporter Array systems according to the manufacturer's instructions. The pathway-focused dual-luciferase reporter construct was a mixture of an inducible transcription factor responsive firefly luciferase reporter and constitutively expressing renilla construct. Transcriptional response element (TRE) sequence response elements to each specific transcriptional factor triggered by the different signaling pathways are positioned before the TATA box of firefly luciferase reporter gene. The extent of activity of the reporter reflects the level of activity of the particular signaling pathway. CMV controlled renilla expression vector is co-transfected into the cell as an internal control. Non-inducible reporter construct that lacks the transcriptional factor binding sequence and could not be induced by any transcription factors is used as a negative control. Cells transfected with CMV directed firefly luciferase reporter gene serve as a positive control. Briefly, cells seeded in 6-well plates were transfected with Cignal finder pathway arrays according to the manufacturer's instructions (Qiagen). Then cells were seeded onto 96-well plates. Ci (6000 ng/mL), Mi (800 ng/mL), or EH (1000 ng/mL) and Ci/Mi/EH combination (Ci, 1500 ng/mL, Mi, 800 ng/mL and EH, 1000 ng/m L) were then added to the cells 24 h post-transfection. After 6 h of incubation with the different drugs at 37° C., cells were lysed and a dual luciferase assay (for firefly and renilla luciferase) was performed using a PromegaGloMax 20/20 illuminometer. The firefly luciferase activities were normalized over the renilla luciferase activities after background activity determined by luciferase activities of negative controls was subtracted. A triple test of cell survival under these drug doses was also performed by MTT assay following 18 h incubation at 37° C. […]"}, "5637": {"tested_on": "5637", "assay": "MTT cell survival / IC50, 5637 cells", "assay_type": "cell-based, human", "protocol": "(§2) The clinical grade of the chemotherapeutics (NCI Dictionary of Cancer Terms) was provided by the First Affiliated Hospital of Harbin Medical University: Pirarubicin (Pi, Wanle, Shenzhen), Paclitaxel (Pa, Taiji, Sichuan), Adriamycin (Ad, Pfizer, Jiangsu), Epirubicin Hydrochloride (EH, Haizheng, Zhejiang), Hydroxycamptothecin (Hy, Lishizhen, Hubei), Cisplatin (Ci, Haosen, Jiangsu), Gemcitabine (Ge, Haosen, Jiangsu) and Mitomycin (Mi, Haizheng, Zhejiang). The drug induced cell death was determined by a thiazolyl […] (MTT, 490 nm reading) based cell proliferation assay in the cultured cells following treatment by various concentrations of drugs for 72 hours. The relative chemoresistance to each drug of all cell lines was calculated with the lowest IC50 as a reference. The overall chemoresistance of each cell line was described as “chemoresistance index”, the numerator of the total relative IC50 to all the drugs over the number of drugs to rank the overall resistance state of each cell line to the six chemotherapeutics collectively.\n(§3) The relative IC50 (fold) of each drug of all nine cell lines was normalized to the lowest IC50 in the most sensitive cell line (FIG. 2G), to describe the single drug resistance of cell lines. The overall chemoresistance of each cell line, a “chemoresistance index” (the numerator of the total relative IC50 over the number of drugs) (FIG. 2G) were calculated to rank the overall resistance state of each cell line to this six chemotherapeutics.\n(§4) Twenty six-drug combinations at the indicated doses were initially generated through a random number generator (using MATLAB MathWorks©, Natick, Mass., U.S.) (The upper half of Table 1). The cell survival (% over the not drug control) of treated cells was determined and then used for a calculation of the average cumulative cell survival (%, ACS: the sum of cell survival (%) per combination divided by the number of cell lines tested). ACS<30% was used to separate the effective from the not-effective combinations."}, "EJ": {"tested_on": "EJ", "assay": "MTT cell survival / IC50, EJ cells", "assay_type": "cell-based, human", "protocol": "as §2, §3, §4"}, "SCaBER": {"tested_on": "SCaBER", "assay": "MTT cell survival / IC50, SCaBER squamous carcinoma cells", "assay_type": "cell-based, human", "protocol": "as §2, §3"}, "H-bc": {"tested_on": "H-bc", "assay": "MTT cell survival / IC50, H-bc cells", "assay_type": "cell-based, human", "protocol": "as §2, §3, §4"}, "Biu87": {"tested_on": "Biu87", "assay": "MTT cell survival / IC50, Biu87 cells", "assay_type": "cell-based, human", "protocol": "as §2, §3, §4"}, "J-82": {"tested_on": "J-82", "assay": "MTT cell survival / IC50, J-82 cells", "assay_type": "cell-based, human", "conditions": "J82; Table S3; ng/ml: Pi 40, Pa 160, EH 250, Ci 1500, Mi 200; 1=Ci/Mi, 2=EH/Ci/Mi, 3=Pa/Ci/Mi, 4=Pi/Ci/Mi", "protocol": "as §2, §3, §4"}, "Hypoxia pathway": {"tested_on": "Hypoxia pathway", "assay": "Cignal Finder dual-luciferase pathway reporter, Hypoxia", "assay_type": "cell-based, human", "parameters": "key to Relative activity, Hypoxia reporter: firefly/renilla ratio, background (negative control) subtracted", "conditions": "for Relative activity, Hypoxia reporter: luc/Renluc relative to negative control reporter, single drug at 4 folds vs EH/Ci/Mi combination", "protocol": "as §1"}, "T24": {"tested_on": "T24", "assay": "MTT cell survival / IC50, T24 cells", "assay_type": "cell-based, human", "protocol": "as §2, §3, §4"}, "[1]": {"tested_on": "nine cancer-associated signaling pathways", "assay": "Pearson correlation of collective drug-triggered pathway activities (single drug versus EH/Ci/Mi regimen)", "excerpt": "To calculate the correlation coefficients between the two cell lines, the R language statistics function “cor{stats}” was used to generate the correlation matrix between multiple cell lines.\nThis example then determined the correlation coefficient between the overall activity of these nine pathways and the chemoresistance state of these five cell lines. […] The overall state of activity of these pathways in each cell line are summarized (FIG. 4E) and the correlation coefficient of each pair of cell lines is calculated (FIG. 4F)."}, "[2]": {"conditions": "Table S3, ng/ml: Pi 40, Pa 160, EH 250, Ci 1500, Mi 200, 1=Ci/Mi, 2=EH/Ci/Mi, 3=Pa/Ci/Mi, 4=Pi/Ci/Mi"}, "[3]": {"conditions": "ng/ml: EH 1000, Ci 6000, Mi 800, Pi 160, Pa 640, Ge 20, EH/Ci/Mi regimen"}}}
{"smiles": "N.N.[Cl][Pt][Cl]", "note": "[Ci, (SP-4-2)-diamminedichloroplatinum(II)]", "values": [{"measurement": "digitalized pathway activity, Notch", "setting": "Notch pathway; 5637 cells", "value": "0 (null (0) if neither of the above holds)"}, {"measurement": "relative drug trigged pathway activity over the no-drug level, Notch", "setting": "Notch pathway; 5637 cells", "value": 1.39, "unit": "fold"}, {"measurement": "Relative activity, Notch reporter", "setting": "Notch pathway; 5637 cells", "value": 1.41}, {"measurement": "relative drug trigged pathway activity over the no-drug level, Notch", "setting": "Notch pathway; Biu87 cells", "value": 0.5, "unit": "fold"}, {"measurement": "Relative activity, Notch reporter", "setting": "Notch pathway; Biu87 cells", "value": 2.23}, {"measurement": "relative drug trigged pathway activity over the no-drug level, Notch", "setting": "Notch pathway; H-bc cells", "value": 0.31, "unit": "fold"}, {"measurement": "Relative activity, Notch reporter", "setting": "Notch pathway; H-bc cells", "value": 1.60}, {"measurement": "digitalized pathway activity, Notch", "setting": "Notch pathway; SV-HUC-1 cells", "value": "0 (null (0) if neither of the above holds)"}, {"measurement": "relative drug trigged pathway activity over the no-drug level, Notch", "setting": "Notch pathway; SV-HUC-1 cells", "value": 1.44, "unit": "fold"}, {"measurement": "Relative activity, Notch reporter", "setting": "Notch pathway; SV-HUC-1 cells", "value": 6.20}, {"measurement": "digitalized pathway activity, Notch", "setting": "Notch pathway; UM-UC-3 cells", "value": "0 (null (0) if neither of the above holds)"}, {"measurement": "Relative activity, Notch reporter", "setting": "Notch pathway; UM-UC-3 cells", "value": 4.99}, {"measurement": "relative drug trigged pathway activity over the no-drug level, Notch", "setting": "Notch pathway; Um-Uc-3 cells", "value": 1.01, "unit": "fold"}, {"measurement": "Cell survival (%)", "setting": "5637; 5637, Table S3, ng/ml: Pi 40, Pa 160, EH 250, Ci 1500, Mi 200, 1=Ci/Mi, 2=EH/Ci/Mi, 3=Pa/Ci/Mi, 4=Pi/Ci/Mi", "value": 20.32, "unit": "%"}, {"measurement": "Single drug 4X Cell Survival (%)", "setting": "5637; 5637, ng/ml: EH 1000, Ci 6000, Mi 800, Pi 160, Pa 640, Ge 20, EH/Ci/Mi regimen", "value": 1.49, "unit": "%"}, {"measurement": "Cell survival 72 hours", "setting": "5637; 5637 cells, Table 4 (A)", "value": 2.23, "unit": "%"}, {"measurement": "ACS (%)", "setting": "5637; 5637 cells, Table 4 (B)", "value": 2.23, "unit": "%"}, {"measurement": "Cell survival (%)", "setting": "EJ; [2]", "value": 32.34, "unit": "%"}, {"measurement": "Single drug 4X Cell Survival (%)", "setting": "EJ; [3]", "value": 22.36, "unit": "%"}, {"measurement": "Cell survival (%)", "setting": "SCaBER; [2]", "value": 22.05, "unit": "%"}, {"measurement": "Single drug 4X Cell Survival (%)", "setting": "SCaBER; [3]", "value": 5.58, "unit": "%"}, {"measurement": "Cell survival 72 hours", "setting": "H-bc; H-bc cells, Table 4 (A)", "value": 1.61, "unit": "%"}, {"measurement": "ACS (%)", "setting": "H-bc; H-bc cells, Table 4 (B)", "value": 1.61, "unit": "%"}, {"measurement": "Cell survival (%)", "setting": "H-bc; H-bc, Table S3, ng/ml: Pi 40, Pa 160, EH 250, Ci 1500, Mi 200, 1=Ci/Mi, 2=EH/Ci/Mi, 3=Pa/Ci/Mi, 4=Pi/Ci/Mi", "value": 41.98, "unit": "%"}, {"measurement": "Single drug 4X Cell Survival (%)", "setting": "H-bc; H-bc, ng/ml: EH 1000, Ci 6000, Mi 800, Pi 160, Pa 640, Ge 20, EH/Ci/Mi regimen", "value": 1.61, "unit": "%"}, {"measurement": "Cell survival (%)", "setting": "Biu87; Biu87, Table S3, ng/ml: Pi 40, Pa 160, EH 250, Ci 1500, Mi 200, 1=Ci/Mi, 2=EH/Ci/Mi, 3=Pa/Ci/Mi, 4=Pi/Ci/Mi", "value": 20.94, "unit": "%"}, {"measurement": "Single drug 4X Cell Survival (%)", "setting": "Biu87; Biu87, ng/ml: EH 1000, Ci 6000, Mi 800, Pi 160, Pa 640, Ge 20, EH/Ci/Mi regimen", "value": 12.93, "unit": "%"}, {"measurement": "Cell survival 72 hours", "setting": "Biu87; Biu87 cells, Table 4 (A)", "value": 12.93, "unit": "%"}, {"measurement": "ACS (%)", "setting": "Biu87; Biu87 cells, Table 4 (B)", "value": 12.93, "unit": "%"}, {"measurement": "Cell survival (%)", "setting": "J-82", "value": 15.42, "unit": "%"}, {"measurement": "relative drug trigged pathway activity over the no-drug level, Hypoxia", "setting": "Hypoxia pathway; 5637 cells", "value": 1.64, "unit": "fold"}, {"measurement": "Relative activity, Hypoxia reporter", "setting": "Hypoxia pathway; 5637 cells", "value": 37.36}, {"measurement": "digitalized pathway activity, Hypoxia", "setting": "Hypoxia pathway; Biu87 cells", "value": "0 (null (0) if neither of the above holds)"}, {"measurement": "relative drug trigged pathway activity over the no-drug level, Hypoxia", "setting": "Hypoxia pathway; Biu87 cells", "value": 1.32, "unit": "fold"}, {"measurement": "Relative activity, Hypoxia reporter", "setting": "Hypoxia pathway; Biu87 cells", "value": 10.01}, {"measurement": "relative drug trigged pathway activity over the no-drug level, Hypoxia", "setting": "Hypoxia pathway; H-bc cells", "value": 0.39, "unit": "fold"}, {"measurement": "Relative activity, Hypoxia reporter", "setting": "Hypoxia pathway; H-bc cells", "value": 49.11}, {"measurement": "digitalized pathway activity, Hypoxia", "setting": "Hypoxia pathway; SV-HUC-1 cells", "value": "0 (null (0) if neither of the above holds)"}, {"measurement": "relative drug trigged pathway activity over the no-drug level, Hypoxia", "setting": "Hypoxia pathway; SV-HUC-1 cells", "value": 1.19, "unit": "fold"}, {"measurement": "Relative activity, Hypoxia reporter", "setting": "Hypoxia pathway; SV-HUC-1 cells", "value": 30.20}, {"measurement": "digitalized pathway activity, Hypoxia", "setting": "Hypoxia pathway; UM-UC-3 cells", "value": "0 (null (0) if neither of the above holds)"}, {"measurement": "Relative activity, Hypoxia reporter", "setting": "Hypoxia pathway; UM-UC-3 cells", "value": 41.68}, {"measurement": "relative drug trigged pathway activity over the no-drug level, Hypoxia", "setting": "Hypoxia pathway; Um-Uc-3 cells", "value": 0.66, "unit": "fold"}, {"measurement": "Cell survival (%)", "setting": "T24; [2]", "value": 15.46, "unit": "%"}, {"measurement": "Single drug 4X Cell Survival (%)", "setting": "T24; [3]", "value": 10.49, "unit": "%"}, {"measurement": "Correlation coefficients versus EH/Ci/Mi", "setting": "[1]; 5637 cells", "value": 0.9177}, {"measurement": "Correlation coefficients versus EH/Ci/Mi", "setting": "[1]; Biu87 cells", "value": 0.3273}, {"measurement": "Correlation coefficients versus EH/Ci/Mi", "setting": "[1]; H-bc cells", "value": 0.6934}, {"measurement": "Correlation coefficients versus EH/Ci/Mi", "setting": "[1]; SV-HUC-1 cells", "value": 1}, {"measurement": "Correlation coefficients versus EH/Ci/Mi", "setting": "[1]; UmUc3 cells", "value": "−0.7559"}]}
